Data reported in patent US10399940B2, “Substituted pyrrolidines and methods of use” (AbbVie S.à.r.l., priority 2016, dated 2019).
Like-named read-outs stand apart in the source and are kept apart here.

Target: T1, F508delCFTR (Homo sapiens, UniProt P13569, DEL508-508)
T1 construct: expressed in transfected cells; host or cells: CFBE41o- (human lung derived epithelial cell line), doxycycline-inducible expression
Assay: Cell Surface Expression-Horse Radish Peroxidase (CSE-HRP) assay
Format: cell-based
Settings: CFBE41o-F508delCFTR-HRP cells; for Maximum % activity (with co-corrector): with co-corrector (2 μM); for Maximum % activity (with co-corrector) / Maximum % activity (without co-corrector): normalized to on-plate positive control, highest concentration 20 μM
Protocol: Cell Surface Expression-Horse Radish Peroxidase (CSE-HRP) Assay
A cellular assay for measuring the F508delCFTR cell surface expression after correction with test compounds either without or with a co-corrector (2 μM of 3-[(2R,4R)-4-({[1-(2,2-difluoro-1,3-benzodioxol-5-yl)cyclopropyl]carbonyl}amino)-7-methoxy-3,4-dihydro-2H-chromen-2-yl]benzoic acid), was developed in human lung derived epithelial cell line (CFBE41o-) (Veit G et al, (2012) Mol Biol Cell. 23(21): 4188-4202). The development was achieved by expressing the F508delCFTR mutation along with a horseradish peroxidase (HRP) in the fourth exofacial loop, and then measuring the HRP activity using luminescence readout from these cells, CFBE41o-F508delCFTR-HRP, that were incubated overnight with the test corrector compounds, either without or with the co-corrector. For this primary assay, the CFBE41o-F508delCFTR-HRP cells were plated in 384-well plates (Greiner Bio-one; Cat 781080) at 4,000 cells/well along with 0.5 μg/mL doxycycline to induce the F508delCFTR-HRP expression and further incubated at 37° C., 5% CO2 for 72 hours. The test compounds were then added either without or with a co-corrector at the required concentrations and further incubated for 18-24 hours at 33° C. The highest concentration tested was 20 μM with an 8-point concentration response curve using a 3-fold dilution in both the test compound without or with the co-corrector. Three replicate plates were run to determine one EC50. All plates contained negative controls (dimethyl sulfoxide, DMSO) and positive control (2 μM of 3-[(2R,4R)-4-({[1-(2,2-difluoro-1,3-benzodioxol-5-yl)cyclopropyl]carbonyl}amino)-7-methoxy-3,4-dihydro-2H-chromen-2-yl]benzoic acid) as well as on-plate concentration response of the positive control. Post incubation, the plates were washed 5× times with Dulbecco's phosphate buffered saline (DPBS), followed by the addition of the HRP substrate, luminol (50 μL), and measuring the HRP activity using luminescence readout on EnVision® Multilabel Plate Reader (Perkin Elmer; product number 2104-0010). The raw counts from the experiment were analyzed using Accelrys® Assay Explorer v3.3.
Z′ greater than 0.5 was used as passing quality control criteria for the plates.
The Z′ is defined as: 1−[3*SDPositive Control+3*SDNegative Control/Absolute(MeanPositive Control−MeanNegative Control)] wherein “SD” is standard deviation.
The % activity measured at each of the 8 test concentrations of the test compound added either without or with a co-corrector (2 μM of 3-[(2R,4R)-4-({[1-(2,2-difluoro-1,3-benzodioxol-5-yl)cyclopropyl]carbonyl}amino)-7-methoxy-3,4-dihydro-2H-chromen-2-yl]benzoic acid) was normalized to the on-plate positive control using the following formulae: % activity(Test compound without co-corrector)=[(test compound without co-corrector response−DMSO response)/(positive control response−DMSO response)]*100 % activity(Test compound with co-corrector)=[(test compound with co-corrector response−DMSO response)/(positive control response−DMSO response)]*100
The maximum % activity achieved for the test compound either without or with a co-corrector at any tested concentration is presented in Table 1 along with the respective EC50's calculated using the following general sigmoidal curve with variable Hill slope equation (described as Model 42 in the Accelrys® Assay Explorer v3.3 software): y=(a−d)/(1+(x/c)^b)+d
General sigmoidal curve with concentration, response, top, bottom, EC50 and Hill slope. This model describes a sigmoidal curve with an adjustable baseline, a. The equation can be used to fit curves where response is either increasing or decreasing with respect to the independent variable, “x”. • “x” is a concentration of drug under test. • “y” is the response. • “a” is the maximum response, and “d” is the minimum response • “c” is the inflection point (EC50) for the curve. That is, “y” is halfway between the lower and upper asymptotes when x=c. “b” is the slope-factor or Hill coefficient. […]

[1] = test compound without co-corrector, 18-24 hours at 33° C., read-out: EC50 (without co-corrector)
[2] = with co-corrector (2 μM of 3-[(2R,4R)-4-({[1-(2,2-difluoro-1,3-benzodioxol-5-yl)cyclopropyl]carbonyl}amino)-7-methoxy-3,4-dihydro-2H-chromen-2-yl]benzoic acid), read-out: EC50 (with co-corrector)

T1 sequence (P13569 with tags, fused parts or gaps DEL508-508): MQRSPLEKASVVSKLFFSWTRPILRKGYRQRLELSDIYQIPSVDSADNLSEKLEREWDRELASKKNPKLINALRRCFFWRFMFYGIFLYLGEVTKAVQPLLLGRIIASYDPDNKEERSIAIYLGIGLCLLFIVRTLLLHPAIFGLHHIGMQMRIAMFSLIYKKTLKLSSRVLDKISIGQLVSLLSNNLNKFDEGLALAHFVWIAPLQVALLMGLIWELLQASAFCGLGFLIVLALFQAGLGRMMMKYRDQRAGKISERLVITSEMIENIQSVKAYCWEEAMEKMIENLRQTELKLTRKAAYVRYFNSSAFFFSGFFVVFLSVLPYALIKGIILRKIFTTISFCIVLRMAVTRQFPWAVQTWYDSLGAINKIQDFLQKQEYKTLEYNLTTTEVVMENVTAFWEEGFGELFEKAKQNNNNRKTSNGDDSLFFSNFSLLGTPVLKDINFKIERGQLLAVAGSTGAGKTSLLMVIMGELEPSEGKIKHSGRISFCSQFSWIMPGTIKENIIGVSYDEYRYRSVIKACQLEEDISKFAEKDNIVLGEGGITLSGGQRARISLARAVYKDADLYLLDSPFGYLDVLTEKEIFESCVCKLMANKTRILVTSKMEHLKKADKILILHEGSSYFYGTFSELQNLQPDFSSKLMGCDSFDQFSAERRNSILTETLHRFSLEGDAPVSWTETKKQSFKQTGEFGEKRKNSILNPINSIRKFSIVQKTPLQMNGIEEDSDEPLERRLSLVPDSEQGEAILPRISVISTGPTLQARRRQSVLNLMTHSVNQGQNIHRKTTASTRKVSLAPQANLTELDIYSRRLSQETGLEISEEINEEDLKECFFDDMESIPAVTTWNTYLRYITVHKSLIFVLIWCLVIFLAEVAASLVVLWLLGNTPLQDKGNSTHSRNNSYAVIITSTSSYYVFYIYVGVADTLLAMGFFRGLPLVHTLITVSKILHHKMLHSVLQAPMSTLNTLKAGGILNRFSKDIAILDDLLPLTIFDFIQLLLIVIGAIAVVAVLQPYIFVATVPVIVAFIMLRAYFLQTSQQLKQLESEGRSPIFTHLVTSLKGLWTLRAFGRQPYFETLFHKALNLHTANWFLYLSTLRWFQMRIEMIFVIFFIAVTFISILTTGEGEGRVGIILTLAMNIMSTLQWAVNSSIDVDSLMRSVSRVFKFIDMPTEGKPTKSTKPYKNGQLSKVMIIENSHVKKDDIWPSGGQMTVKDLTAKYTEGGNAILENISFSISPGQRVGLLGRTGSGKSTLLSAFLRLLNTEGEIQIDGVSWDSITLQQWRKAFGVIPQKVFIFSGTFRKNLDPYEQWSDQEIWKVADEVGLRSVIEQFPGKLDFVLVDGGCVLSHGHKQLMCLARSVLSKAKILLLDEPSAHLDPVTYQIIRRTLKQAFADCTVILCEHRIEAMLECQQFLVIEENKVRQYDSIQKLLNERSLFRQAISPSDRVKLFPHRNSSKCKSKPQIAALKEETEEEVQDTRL

Structure (SMILES) | EC50 [1] [µM] | EC50 [2] [µM] | Maximum % activity (with co-corrector) | Maximum % activity (without co-corrector)
COc1ccc(C(F)(F)F)cc1COC1[C@@H](c2cccnc2N(C)C)N(C(=O)C2CCCCC2)[C@@H](C(=O)O)[C@@H]1C(C)(C)C (mixture of isomers) [Example 15, rac-(2R,3S,5R)-3-tert-butyl-1-(cyclohexanecarbonyl)-5-[2-(dimethylamino)pyridin-3-yl]-4-{[2-methoxy-5-(trifluoromethyl)phenyl]methoxy}pyrrolidine-2-carboxylic acid] | 1 to 10 | 1 to 10 | +++ (≥350) | ++ (≥100 and <200)
COc1ccc(C(F)(F)F)cc1COC1[C@@H](c2ccccc2)N(C(=O)C2CCCCC2)[C@@H](C(=O)NS(C)(=O)=O)[C@@H]1C(C)(C)C (mixture of isomers) [Example 16, rac-(2R,3S,5R)-3-tert-butyl-1-(cyclohexanecarbonyl)-N-(methanesulfonyl)-4-{[2-methoxy-5-(trifluoromethyl)phenyl]methoxy}-5-phenylpyrrolidine-2-carboxamide] | 1 to 10 | 1 to 10 | ++ (≥150 and <350) | + (<100)
COc1ccc(Cl)cc1COC1[C@@H](c2ccccc2)N(C(=O)OC(C)C)[C@@H](C(=O)O)[C@@H]1C(C)(C)C (mixture of isomers) [Example 17, rac-(2R,3S,5R)-3-tert-butyl-4-[(5-chloro-2-methoxyphenyl)methoxy]-5-phenyl-1-{[(propan-2-yl)oxy]carbonyl}pyrrolidine-2-carboxylic acid] | 1 to 10 | 1 to 10 | +++ (≥350) | ++ (≥100 and <200)
COc1ncc(C(F)(F)F)cc1CO[C@@H]1[C@@H](C(C)(C)C)[C@H](C(=O)O)N(C(=O)C2CCCCC2)[C@@H]1c1ccccc1 (racemic) [Example 20, rac-(2R,3S,4R,5R)-3-tert-butyl-1-(cyclohexanecarbonyl)-4-{[2-methoxy-5-(trifluoromethyl)pyridin-3-yl]methoxy}-5-phenylpyrrolidine-2-carboxylic acid] | < 1 | < 1 | +++ (≥350) | ++ (≥100 and <200)
COc1cc(C(F)(F)F)ccc1CO[C@@H]1[C@@H](C(C)(C)C)[C@H](C(=O)O)N(C(=O)OC2CCC2)[C@@H]1c1ccccc1 (racemic) [Example 34, rac-(2R,3S,4R,5R)-3-tert-butyl-1-[(cyclobutyloxy)carbonyl]-4-{[2-methoxy-4-(trifluoromethyl)phenyl]methoxy}-5-phenylpyrrolidine-2-carboxylic acid] | 1 to 10 | 1 to 10 | +++ (≥350) | + (<100)
COc1ccc(Cl)cc1CO[C@@H]1[C@@H](C(C)(C)C)[C@H](C(=O)O)N(C(=O)OC2CCC2)[C@@H]1c1ccccc1 (racemic) [Example 35, rac-(2R,3S,4R,5R)-3-tert-butyl-4-[(5-chloro-2-methoxyphenyl)methoxy]-1-[(cyclobutyloxy)carbonyl]-5-phenylpyrrolidine-2-carboxylic acid] | 1 to 10 | 1 to 10 | +++ (≥350) | ++ (≥100 and <200)
COc1ccc(C(F)(F)F)cc1CO[C@@H]1[C@@H](C(C)(C)C)[C@H](C(=O)O)N(C(=O)N(C(C)C)C(C)C)[C@@H]1c1ccccc1 (single isomer, unassigned) [Example 8, (2R*,3S*,4R*,5R*)-3-tert-butyl-1-[di(propan-2-yl)carbamoyl]-4-{[2-methoxy-5-(trifluoromethyl)phenyl]methoxy}-5-phenylpyrrolidine-2-carboxylic acid] | > 10 | > 10 | + (<150) | + (<100)
COc1ccc(C(F)(F)F)cc1CO[C@H]1[C@H](C(C)(C)C)[C@@H](C(=O)O)N(C(=O)N(C(C)C)C(C)C)[C@H]1c1ccccc1 (single isomer, unassigned) [Example 9, (2S*,3R*,4S*,5S*)-3-tert-butyl-1-[di(propan-2-yl)carbamoyl]-4-{[2-methoxy-5-(trifluoromethyl)phenyl]methoxy}-5-phenylpyrrolidine-2-carboxylic acid] | > 10 | > 10 | + (<150) | + (<100)
COc1ncc(C(F)(F)F)cc1CO[C@H]1[C@H](C(C)(C)C)[C@@H](C(=O)O)N(C(=O)[C@H]2CCCCO2)[C@H]1c1cccc(C(C)(C)C)c1 (single isomer, unassigned) [Example 157] | < 1 | < 1 | ++ (≥150 and <350) | + (<100)
COc1ncc(C(F)(F)F)cc1CO[C@H]1[C@H](C(C)(C)C)[C@@H](C(=O)O)N(C(=O)[C@@H]2CCCC[C@H]2C(F)(F)F)[C@H]1c1cccnc1OC(C)C (single isomer, unassigned) [Example 282] | < 1 | < 1 | +++ (≥350) | + (<100)
COc1ncc(C(F)(F)F)cc1CO[C@H]1[C@H](C(C)(C)C)[C@@H](C(=O)O)N(C(=O)[C@H]2CCCC[C@@H]2C(F)(F)F)[C@H]1c1cccnc1OC(C)C (single isomer, unassigned) [Example 283] | < 1 | 1 to 10 | +++ (≥350) | + (<100)
COc1ccc(C(F)(F)F)cc1CO[C@@H]1[C@@H](C(C)(C)C)[C@H](C(=O)O)N(C(=O)C2CCCCC2)[C@@H]1c1ccccc1 [Example 18, (2R,3S,4R,5R)-3-tert-butyl-1-(cyclohexanecarbonyl)-4-{[2-methoxy-5-(trifluoromethyl)phenyl]methoxy}-5-phenylpyrrolidine-2-carboxylic acid] | > 10 | 1 to 10 | ++ (≥150 and <350) | + (<100)
COc1ccc(C(F)(F)F)cc1CO[C@H]1[C@H](C(C)(C)C)[C@@H](C(=O)O)N(C(=O)C2CCCCC2)[C@H]1c1ccccc1 [Example 19, (2S,3R,4S,5S)-3-tert-butyl-1-(cyclohexanecarbonyl)-4-{[2-methoxy-5-(trifluoromethyl)phenyl]methoxy}-5-phenylpyrrolidine-2-carboxylic acid] | < 1 | < 1 | +++ (≥350) | +++ (≥200)
COCCS(=O)(=O)NC(=O)[C@@H]1[C@@H](C(C)(C)C)[C@H](OCc2cc(C(F)(F)F)ccc2OC)[C@H](c2ccccc2)N1C(=O)C1CCCCC1 [Example 21, (2S,3R,4S,5S)-3-tert-butyl-1-(cyclohexanecarbonyl)-N-(2-methoxyethanesulfonyl)-4-{[2-methoxy-5-(trifluoromethyl)phenyl]methoxy}-5-phenylpyrrolidine-2-carboxamide] | > 10 | 1 to 10 | ++ (≥150 and <350) | + (<100)
